Measured values from patent US20220305017A1, “COMPOSITIONS AND METHODS FOR THE TREATMENT OF ESTROGEN-DEPENDENT DISORDERS” (ObsEva S.A., priority 2019, published 2022).

Legend:
Format in all cases: in vivo
[1] = tested on: human female patients diagnosed as having uterine fibroids; assay: PRIMROSE 2 Phase 3 placebo-controlled trial in uterine fibroids
Text: (§1) This example describes the results of two Phase 3, double-blind, randomized, placebo-controlled, multicenter, human clinical trials undertaken to evaluate the efficacy of the GnRH antagonist represented by formula (VI) in a series of patients suffering from uterine fibroids. In these trials, referred to herein as “PRIMROSE 1” and “PRIMROSE 2,” human female patients diagnosed as having uterine fibroids were periodically administered compound (VI), 3-[2-fluoro-5-(2,3-difluoro-6-methoxybenzyloxy)4-methoxyphenyl]-2,4-dioxo-1,2,3,4-tetrahydrothieno [3,4d]pyrimidine-5-carboxylic acid, in the form of a choline salt over the course of a 12-month treatment period. Patients were administered compound (VI) once daily in an amount of either 100 mg or 200 mg. Patients receiving compound (VI) in a daily amount of 200 mg also received once daily hormonal add-back therapy (ABT), which consisted of […] of β17-estradiol (E2) per day and 0.5 mg of norethindrone acetate (NETA) per day.
(§2) The PRIMROSE 1 study, conducted in the United States, enrolled 526 women. The PRIMROSE 2 study, conducted in the United States and Europe, enrolled 535 women.
(§3) Patients were randomized to one of several cohorts: (i) placebo, (ii) 100 mg/day of compound (VI), or (iii) 200 mg/day of compound (VI). Patients receiving 200 mg/day of compound (VI) also received once-daily ABT containing 1.0 mg E2 and 0.5 mg NETA.
(§4) Patients were assessed for uterine fibroid symptomology at baseline, after 24 weeks of treatment, and again after 52 weeks of treatment. […] Patients were also assessed in order to determine the number of days of uterine bleeding during their last 28-day interval prior to week 24 of treatment with placebo or compound (VI).
(§5) Pain levels were measured using a Verbal Rating Score (VRS), as described herein. Patients were also assessed to determine the proportion that reported an improvement in quality of life using the Uterine Fibroids Symptoms and Health-Related Quality of Life questionnaire.
(§6) To evaluate the safety of compound (VI), patients' bone mineral density levels were measured at baseline and at various timepoints during the studies.

[2] = tested on: human female patients diagnosed as having endometriosis; assay: Phase 2b human clinical trial in endometriosis, 24-week treatment and post-treatment follow-up; settings: for Bone Mineral Density (Mean % change from baseline): spine
Method: This example describes the results of a Phase 2b human clinical trial undertaken to evaluate the efficacy of a GnRH antagonist represented by formula (VI) in a series of patients suffering from an estrogen-dependent disease. In this trial, a series of human female patients diagnosed as having endometriosis were administered the choline salt of 3-[2-fluoro-5-(2,3-difluoro-6-methoxybenzyloxy)4-methoxyphenyl]-2,4-dioxo-1,2,3,4-tetrahydrothieno [3,4d]pyrimidine-5-carboxylic acid periodically over the course of a 24-week treatment period. After 24 weeks of treatment, various patients entered a 24-week post-treatment follow-up period during which the patients were monitored for serum β17-estradiol (E2) concentration, severity of disease symptoms, and bone mineral density.
A series of n=328 human female patients having clinically-diagnosed endometriosis were randomly assigned to treatment arms in which patients were to be administered placebo or the GnRH antagonist in a once-daily amount of 50 mg/day, 100 mg/day, 75 mg/day, or 200 mg/day. Patients initially treated with placebo (plc) were administered the GnRH antagonist in an amount of 100 mg/day after 12 weeks. Also, after 12 weeks, patients that were initially administered 75 mg/day were provided a higher (100 mg/day) or lower (50 mg/day) dosage of the GnRH antagonist based on the patients' E2 levels at the 12-week point. The E2 levels for this group of patients is represented by “75 mg (TD)” in FIGS. 1-3. Patients that were administered 75 mg through the end of the treatment period are represented by “75 mg (FD)” in FIGS. 1-3.
After 24 weeks of continuous, once-daily treatment, administration of the GnRH antagonist ceased. A set of n=65 patients entered the 24-week post-treatment follow-up study. Following the 24-week treatment period, these patients were periodically monitored. The median E2 levels of patients that were administered the GnRH antagonist during the original 24-week treatment period and that subsequently entered the 24-week post-treatment follow-up study are shown in FIG. 1. FIGS. 2 and 3 show the mean change in dyspareunia and dyschezia scores for such patients over the 24-week treatment period and a 12-week portion of the post-treatment follow-up period.

[3] = tested on: human female patients diagnosed as having uterine fibroids; assay: PRIMROSE 1 Phase 3 placebo-controlled trial in uterine fibroids; settings: for proportion of patients with menstrual blood loss ≤80 mL and ≥50% reduction from baseline: 24 weeks
Text: as §1, §2, §3, §4, §5, §6

[4] = once-daily treatment, 24 and 52 weeks, FIG. 9

Compound: COc1cc(F)c(-n2c(=O)[nH]c3csc(C(=O)O)c3c2=O)cc1OCc1c(OC)ccc(F)c1F [Compound (VI), 3-[2-fluoro-5-(2,3-difluoro-6-methoxybenzyloxy)4-methoxyphenyl]-2,4-dioxo-1,2,3,4-tetrahydrothieno [3,4d]pyrimidine-5-carboxylic acid]
- p value: Improvement in quality of life, Change from baseline in quality of life (QoL) symptom severity score (LS mean) ([1]; 100 mg/day): p = 0.004
- p value: Improvement in quality of life, Change from baseline in quality of life (QoL) symptom severity score (LS mean) ([1]; 200 mg/day + once-daily ABT): p < 0.001
- proportion of patients with menstrual blood loss to a level of 80 mL and a 50% reduction from baseline ([1]; 52 weeks, 100 mg per day without ABT): 53.2%
- proportion of patients with menstrual blood loss ≤80 mL and ≥50% reduction from baseline ([1]; 52 weeks, 200 mg per day + ABT): 91.6%
- bone mineral density, lumbar spine [1, 4]: does not induce a substantial decrease in bone mineral density
- Overall Pelvic Pain Responder Rate (VRS score reduction of > 30% from baseline) ([2]; 75 mg once daily (choline salt), after 24 weeks of treatment, n = 48): 70.8%
- Overall Pelvic Pain Responder Rate (VRS score reduction of > 30% from baseline) ([2]; 75 mg once daily for 24 weeks, 12 weeks after cessation of treatment, n = 7): 87.5%
- Overall Pelvic Pain Responder Rate (VRS score reduction of > 30% from baseline) ([2]; 200 mg once daily (choline salt), after 24 weeks of treatment, n = 44): 77.3%
- Overall Pelvic Pain Responder Rate (VRS score reduction of > 30% from baseline) ([2]; 200 mg once daily for 24 weeks, 12 weeks after cessation of treatment, n = 10): 70.0%
- dyspareunia, Verbal Rating Score (VRS) ([2]; after cessation of 24-week once-daily treatment, 12-week portion of follow-up, FIG. 2): sustained reduction
- dyschezia, Numerical Rating Score (NRS) ([2]; after cessation of 24-week once-daily treatment, 12-week portion of follow-up, FIG. 3): sustained reduction
- Bone Mineral Density (Mean % change from baseline) ([2]; 75 mg once daily for 24 weeks, 12 weeks after cessation of treatment): +0.313%
- Bone Mineral Density (Mean % change from baseline) ([2]; 75 mg once daily, after 24 weeks of treatment): −0.798%
- Bone Mineral Density (Mean % change from baseline) ([2]; 200 mg once daily for 24 weeks, 12 weeks after cessation of treatment): +1.135%
- Bone Mineral Density (Mean % change from baseline) ([2]; 200 mg once daily, after 24 weeks of treatment): −2.602%
- p value: Improvement in quality of life, Change from baseline in quality of life (QoL) symptom severity score (LS mean) ([3]; 100 mg/day): p = 0.002
- p value: Improvement in quality of life, Change from baseline in quality of life (QoL) symptom severity score (LS mean) ([3]; 200 mg/day + once-daily ABT): p < 0.001
- proportion of patients with menstrual blood loss ≤80 mL and ≥50% reduction from baseline ([3]; 100 mg per day without ABT, p=0.003, placebo 35%): 56.4%
- proportion of patients with menstrual blood loss ≤80 mL and ≥50% reduction from baseline ([3]; 200 mg per day + ABT (1.0 mg E2 + 0.5 mg NETA), p<0.001, placebo 35%): 75.5%
- bone mineral density, lumbar spine [3, 4]: does not induce a substantial decrease in bone mineral density
